Results reported in patent US20250288583A1, “Treatment of Mucus Hypersecretion” (priority 2024, published 2025).

Experiments:
ocular margins = assay: Cooling duration bioassay on eyelids/ocular margins; format: in vivo, human; settings: for Eyelids/Ocular Surface: Table 6, cooling duration, non-keratinized
Excerpt: (§1) FIG. 1. Comparison of cooling duration of various p-menthanecarboxamide analogs on philtrum skin versus ocular margins. The philtrum skin is keratinized, but the ocular margins are not. The test substances numbered 1 to 11 are: D-Ala-OiPr, Gly-OiPr, D-Ala-OEt, D-Ala-OMe, D-Ala-GlynPr, GlynPr, D-Ala-OnBu, GlynBu, GlyOEt, L-Ala-OEt, and N-Me-D-Ala-OEt, respectively. Two outliers (1 and 2) were identified as preferred embodiments because they preferentially cool the ocular margins. The nasal cavity surfaces like the ocular margins are not keratinized.
(§2) Cooling agents have been assayed in various ways depending on intended use. For example, for the skin the test substance can be applied on philtrum skin, using descriptions of coolness on a scale of 0 to 3. For the ocular surface, the active ingredient can be applied to the closed eyelids using a wipe. In the oral cavity, drug applications are on the posterior dorsal surface of the tongue. For the oropharyngeal surface, the cooling agent may be applied as an orally disintegrating tablet. The ability of a cooling agent to antagonize a noxious stimuli may also be tested, using nociception from citric acid or chili pepper sauce. Responses are usually measured using a Visual Analog Scale with a numerical rating. For nasal responses, however, such procedures have not been standardized. Some endpoints to consider are open and comfortable breathing, the presence or absence of sniffles, and the secretion of phlegm.

nasal cavity = assay: Nebulizer screening of TRPM8 agonists for sensations in the nasal cavity; format: in vivo, human; settings: NasoNeb nebulizer; for Sensory effects after delivery into the nasal cavity: 3 to 5 sec per nostril
Protocol: Formulations for nebulization with NasoNeb® used a standard recipe of (Table 8): 1% of the active ingredient (1 to 10 mg/mL), 2% Tween 80 (Polysorbate 80), 1 to 5% ethanol, and made up to 100% with water. The mixture is centrifuged in a FlackTek, Inc., Speedmixer for at least 10 min at 3000 rpm. The Speedmixer spins the sample in 3 dimensions. The result is a white homogeneous liquid suspension with some of the solids now dissolved. For dosing, ˜2 to 3 mL is loaded into the canister of the nebulizer. The nebulizer nozzle tip is placed in the nostril and activated by pressing a button for 3 to 5 sec using a clock timer. […] For D-Ala-OiPr a 5-sec activation will deliver 2*0.73 mL*2 mg/ml, or a total dose of 3 mg per nose. The nasal cavity is relatively tolerant to exogenous agents with irritant properties, as many rinses are used for rhinitis and sinusitis. For some p-menthanecarboxamide analogs, a 2% (20 mg/mL) solution is possible and contemplated. An ideal agent reproduces a comfortable cooling or sensations of negative heat flux in the nasal cavity. […] Heat flux refers to the rate of heat transfer per unit area. The sinonasal cavity mucosa differs from philtrum skin and ocular margins in histology, so the choice of the right molecule must be made by experiment. The TRPM8 agonists were chosen for screening using a nebulizer for delivery. The NasoNeb system is powerful and effective for the OMC (FIG. 3). The delivery time per nostril in three to five seconds. […] These parameters were estimated in the initial trials: • Onset and offset of cooling sensations in the nasal cavity. • The intensity and quality of the cooling sensations in the nasal cavity. • Presence of effects such as sneezing or cough after dosing. • Degree of nasal stuffiness on a scale of 0 to 5. • Degree of rhinorrhea and phlegm in nasal secretions. • Questions regarding comfort and sleep at night.

hTRPM8 channel = target: T1, hTRPM8 channel (Homo sapiens, UniProt Q7Z2W7); assay: TRPM8 receptor assay, calcium entry (Fluo-8, FLIPR) in transfected CHO cells; format: cell-based; settings: for EC50: CHO cells transfected with hTRPM8, Fluo-8 calcium kit, FLIPR; for Potency Relative to L-menthol: ratio of TRPM8 EC50 values, menthol = 1.0
T1 construct: host or cells: CHO cells
Excerpt: FIG. 4. Agonist activities of TRPM8 analogs. […] The relative fluorescence (RF) unit on the ordinate represents calcium entry into transfected cells. […] The structures of these compounds are in Table 4.
The applicant has synthesized and examined a series of p-menthanecarboxamides conjugated to amino acid esters. […] This class of molecules is called N-alkylcarbonyl-amino acid esters. GlyOiPr is a p-menthanecarboxamide conjugate of glycine isopropyl (iPr) ester. It is similar in structure to WS-5, a cooling agent used as a food additive. WS-5 is the p-menthane-glycine ethyl (Et) ester, or GlyOEt. […] These in vitro effects were measured in CHO cells transfected with the hTRPM8 channel. Receptor activity was quantified using a Fluo-8 calcium kit and a Fluorescence Imaging Plate Reader ([…]™).

philtrum skin = assay: Cooling duration bioassay on philtrum skin; format: in vivo, human
Excerpt: as §1, §2

oral cavity = assay: Chili-pepper sauce test (oral cavity); format: in vivo, human; parameters: scale not given here; settings: Table 6; grades 0, +, ++ without key
Excerpt: as §2

ostiomeatal complex = assay: Case studies: nebulized cooling agent in subjects with rhinitis and rhinosinusitis; format: in vivo, human; settings: NasoNeb delivery in subjects with rhinosinusitis
Excerpt: Eight subjects with rhinitis and rhinosinusitis volunteered to test cooling agents delivered with the NasoNeb® nebulizer (FIG. 3). The results were clear, robust, and evident. No statistical analysis was necessary. In a 3 to 5-day course of nebulization t.i.d., all subjects reported the ability to manage and control stuffed-up breathing in their activities. All reported comfortable sleep. The sounds of sniffling and congestion of the nose (“sniffles”), snorting, or gurgling were still present, but to a lesser degree. The subject felt it was easier to blow out liquids from the nasal cavity onto a tissue, and the volume and frequency of blowing decreased. Viscous yellow mucus was less in volume and density. The number of wipes deposited daily into a waste basket decreased by >50%. The subjects-were cheerful and enthusiastic because nasal discomfort was under control. As one subject remarked: “The stuffed-up nose problem is now history!” Severat of these cases are reported below as “Case Studies.”
The subject was given a NasoNeb® nebulizer (unavailable in China) and five individual bottles containing 15 mL of a 1% GlyOiPr solution (suspended in 2% Tween 80, 5% ethanol, and 92% water). They were shown how to load the NasoNeb canister with about 2 mL of liquid and activate the device for a 3-second dose into each nostril. The recommended dosage was three times a day, starting in the morning and at about 6-hour intervals, and for five days.
The subject agreed to using the NasoNeb nebulizer with a cooling agent. They were given a NasoNeb nebulizer and three bottles, each containing 15 ml of a 1% GlyOiPr solution (suspended in 2% Tween 80, 5% ethanol, and 92% water). They were shown how to load the NasoNeb canister with about 2 mL of liquid and activate the device for a 3-second dose into each nostril. The recommended dosage was three times a day, starting in the morning and at about 6-hour intervals, and for five days. After a 5-day trial, the subject noted a significant improvement in sleep and comfortable breathing. […] Their headaches were gone, and their appetite improved. They were advised to continue using the Nebulizer/coolant for another week and then on an as-needed basis. Their family has noticed that the subject has become less withdrawn, more engaging, and interested in their surroundings.
The subject volunteered for a trial with GlyOiPr. They were given a NasoNeb® machine and a plastic squeeze bottle containing 50 mL of GlyOiPr at 3 mg/mL suspended in 1% ethanol/2% polysorbate 80. They learned how to load the canister and activate the pump. Then, they were instructed to rinse their nose thoroughly first thing in the morning and then use the Nebulizer at 5 sec per nostril to deliver the solution. The procedure was to be repeated at 2 hours and 5 hours later to total three daily activations. The subject was interviewed after dosing for three days. They said breathing was much easier at night after the dosing, and they slept well. Nasal secretions were still present but less in volume. […] They were encouraged to use the Nebulizer as needed but not to exceed three daily doses. Three weeks after the start of the experiment, they reported that they were in complete control of their rhinitis. They would do a single dose at night before sleep and one in the morning when needed. They no longer felt congested, and the headaches were gone. The slimy phlegm in the nostrils was gone, and crusting was absent. Their nose felt clean. Their social life improved.
Their main complaint was episodes at night when they would wake up and not be able to breathe comfortably. Sleep apnea and lung disorders were ruled out, and the diagnosis was rhinosinusitis. This was confirmed by a computerized tomography scan and endoscopic examination by a qualified ENT specialist. They agreed to test the preferred embodiments GlyOnPr, GlyOiPr, D-Ala-OnPr, and D-Ala-OiPr systematically, one after the other.

[1] = Table 6, cooling duration, keratinized skin

T1 sequence (Q7Z2W7 whole entry): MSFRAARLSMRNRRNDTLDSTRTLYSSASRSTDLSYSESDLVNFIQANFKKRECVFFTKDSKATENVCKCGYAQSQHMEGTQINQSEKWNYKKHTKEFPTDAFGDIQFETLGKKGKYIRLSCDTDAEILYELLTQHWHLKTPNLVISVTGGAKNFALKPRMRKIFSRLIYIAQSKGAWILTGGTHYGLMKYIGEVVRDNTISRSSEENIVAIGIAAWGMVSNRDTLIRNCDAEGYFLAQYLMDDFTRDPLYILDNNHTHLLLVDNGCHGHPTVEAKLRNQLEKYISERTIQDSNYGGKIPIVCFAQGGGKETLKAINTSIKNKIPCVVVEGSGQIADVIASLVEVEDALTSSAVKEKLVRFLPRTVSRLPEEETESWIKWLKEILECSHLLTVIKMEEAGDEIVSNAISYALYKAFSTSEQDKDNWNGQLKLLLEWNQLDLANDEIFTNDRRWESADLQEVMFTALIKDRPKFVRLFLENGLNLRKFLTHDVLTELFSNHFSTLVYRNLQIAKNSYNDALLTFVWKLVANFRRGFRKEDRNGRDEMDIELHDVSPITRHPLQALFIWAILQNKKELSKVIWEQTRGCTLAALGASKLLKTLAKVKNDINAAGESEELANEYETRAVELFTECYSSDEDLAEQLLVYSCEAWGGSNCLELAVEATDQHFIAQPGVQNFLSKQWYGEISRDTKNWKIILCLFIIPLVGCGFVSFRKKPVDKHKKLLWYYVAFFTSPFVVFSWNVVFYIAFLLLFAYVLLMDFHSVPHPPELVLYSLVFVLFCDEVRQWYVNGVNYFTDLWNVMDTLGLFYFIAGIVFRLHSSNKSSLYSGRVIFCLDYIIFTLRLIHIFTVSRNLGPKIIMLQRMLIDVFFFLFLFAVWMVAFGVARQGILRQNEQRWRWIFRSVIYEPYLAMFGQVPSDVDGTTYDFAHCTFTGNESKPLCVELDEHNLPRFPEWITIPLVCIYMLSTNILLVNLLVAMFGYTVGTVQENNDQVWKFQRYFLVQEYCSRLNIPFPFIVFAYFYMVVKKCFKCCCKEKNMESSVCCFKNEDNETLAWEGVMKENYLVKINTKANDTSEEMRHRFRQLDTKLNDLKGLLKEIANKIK

SMILES | Eyelids/Ocular Surface (ocular margins) [min] | Cooling duration in the nasal cavity (nasal cavity) [min] | Sensory effects after delivery into the nasal cavity (nasal cavity) | EC50 (hTRPM8 channel) [nM] | Potency Relative to L-menthol (hTRPM8 channel) | Philtrum Skin (philtrum skin; [1]) [min] | Chili-Pepper Sauce Test (oral cavity) | Relief of stuffiness and breathing (ostiomeatal complex) | Ocular Surface (ocular margins; Table 7, Gly esters) [min] | Philtrum Skin (philtrum skin; Table 7, Gly esters) [min]
CCOC(=O)[C@@H](C)NC(=O)[C@@H]1C[C@H](C)CC[C@H]1C(C)C [D-Ala-OEt, (R)-2-[((1R,2S,5R)-2-isopropyl-5-methyl-cyclohexanecarbonyl)-amino]-propionic acid ethyl ester] | 180 | ~15 | Bitter taste, causes coughing | 270 | 14.0 | 103 |  |  |  | 
COC(=O)C(C)NC(=O)[C@@H]1C[C@H](C)CC[C@H]1C(C)C (stereo partly drawn) [D-Ala-OMe] | 120 |  |  | 590 | 6.4 | 77 |  |  |  | 
CCCCOC(=O)C(C)NC(=O)[C@@H]1C[C@H](C)CC[C@H]1C(C)C (stereo partly drawn) [D-Ala-OnBu] | 40 |  |  | 1030 | 3.7 | 80 | 0 |  |  | 
CCCOC(=O)[C@@H](C)NC(=O)[C@@H]1C[C@H](C)CC[C@H]1C(C)C [D-Ala-OnPr, (R)-2-[((1R,2S,5R)-2-isopropyl-5-methyl-cyclohexanecarbonyl)-amino]-propionic acid n-propyl ester] | 65 |  | Strong penetrating cool at 3 mg/mL. Excellent for viral ARS. |  |  | 108 |  | provided relief |  | 
CC(C)[C@@H]1CC[C@@H](C)C[C@H]1C(=O)NCCc1ccccn1 [FEMA 4549, (1R,2S,5R)-N-(2-(pyridin-2-yl)ethyl)-3-p-menthanecarboxamide, reference compound] |  |  | Although potent on TRPM8 receptor, slow onset and absence of refreshing cooling. |  |  |  |  |  |  | 
COC(=O)CNC(=O)[C@@H]1C[C@H](C)CC[C@H]1C(C)C [GlyOMe] |  |  |  | 500 | 7.6 |  |  |  | 5 | 10
CCOC(=O)[C@H](C)NC(=O)[C@@H]1C[C@H](C)CC[C@H]1C(C)C [L-Ala-OEt, (S)-2-[((1R,2S,5R)-2-isopropyl-5-methyl-cyclohexanecarbonyl)-amino]-propionic acid ethyl ester] | 0 |  | Very little cooling, low potency on TRPM8, good only as negative control. | 24000 | 0.2 | 34 | 0 |  |  | 
CCOC(=O)C(C)NC(=O)[C@@H]1C[C@H](C)CC[C@H]1C(C)C (stereo partly drawn) [L-Ala-OiPr] | 15 |  |  |  |  | 27 | 0 |  |  | 
CCOC(=O)C(C)NC(=O)[C@@H]1C[C@H](C)CC[C@H]1C(C)C (stereo partly drawn) [L-Ala-OnBu] | 0 |  |  |  |  | 0 | 0 |  |  | 
CCOC(=O)C(C)NC(=O)[C@@H]1C[C@H](C)CC[C@H]1C(C)C (stereo partly drawn) [L-Ala-OnPr] | 10 |  |  |  |  | 22 | 0 |  |  | 
O=C1NC(c2cccc([N+](=O)[O-])c2)=CCN1c1ccccc1O [icilin, 1-[2-hydroxy]-4-[3-nitrophenyl]-1,2,3,6-tetrahydropyrimidine-2-one, reference compound] |  |  | Difficult to form a homogeneous suspension, causes systemic cooling at higher doses |  |  |  |  |  |  | 
